# Assay results taken from patent US10183949B2, “Pyrimidinone derivative having autotaxin-inhibitory activity” (The University of Tokyo, priority 2014, dated 2019).
# Target: T1, Human autotaxin enzyme (Homo sapiens, UniProt Q13822)
# T1 construct: purchased R&D System
# Assay: Evaluation of autotaxin inhibitor, 18:0 Lyso PC / choline assay (Test Example 2)
# Assay type: biochemical
# Conditions: human autotaxin enzyme, 18:0 Lyso PC substrate, choline assay, room temperature 2 hours; read-out: Inhibitor activity (IC50)
# Method: Solution B containing 100 mM Tris-HCl buffer (pH7.5), 150 mM NaCl, 5 mM MgCl2, and 0.05% Triton X-100 was prepared. Human autotaxin enzyme (purchased from R&D System) was diluted with Solution B, and 2.5 μl of which was added to a solution of test compound in DMSO. Furthermore, 2.5 μl of 200 μM 18:0 Lyso PC (purchased from Avanti Polar Lipids) in Solution B was added and allowed to react at room temperature for 2 hours. After completion of the reaction, 15 μl of the coline assay reagent. (100 mM Tris-HCl buffer (pH7.5), 5 mM. MgCl2, 77 μg/ml coline oxidase, 10 μg/ml peroxydase, 25μM 10-acetyl-3,7-dihydroxyphenoxazine, and excess autotaxin inhibitor) was added and allowed to react at room temperature for 20 minutes. The fluorescent dye Resorufin, which was produced by the reaction, was detected. The fluorescence was detected using ViewLux
# (PerkinElmer, Inc.) with a excitation wavelength of 531 nm and a fluorescence wavelength of 598 nm.
# The percent inhibition of the test compound was calculated by assuming the sample with no test compound as 0% inhibition and the sample with no enzyme as 100% inhibition, and the percent inhibitions at different concentrations of the test compound were plotted to obtain a concentration-dependent curve.
row,IC50,Compound
1,100 to 1000 nM,CNC(=O)CN1CCC(NC(=O)Cn2c(CCCC(F)(F)F)nc(-c3ccc(Cl)cc3)cc2=O)CC1 [Compound I-0129]
2,10 to 100 nM,O=C(Cn1c(CCCC(F)(F)F)nc(-c2ccc(Cl)cc2)cc1=O)N1CCC(O)(CO)CC1 [Compound I-0130]
3,10 to 100 nM,O=C(Cn1c(CCCC(F)(F)F)nc(-c2ccc(Cl)cc2)cc1=O)N1CCN(CCO)CC1 [Compound I-0131]
4,100 to 1000 nM,CN(CC(O)CO)C(=O)Cn1c(CCCC(F)(F)F)nc(-c2ccc(Cl)cc2)cc1=O (stereo not shown) [Compound I-0132]
5,10 to 100 nM,NS(=O)(=O)CCNC(=O)Cn1c(CCCC(F)(F)F)nc(-c2ccc(Cl)cc2)cc1=O [Compound I-0133]
6,< 10 nM,CC(C)(O)CNC(=O)Cn1c(CCCC(F)(F)F)nc(-c2ccc(Cl)cc2)cc1=O [Compound I-0134]
7,10 to 100 nM,O=C(Cn1c(CCCC(F)(F)F)nc(-c2ccc(Cl)cc2)cc1=O)NC(CO)(CO)CO [Compound I-0135]
8,100 to 1000 nM,N#CCCN1CCN(C(=O)Cn2c(CCCC(F)(F)F)nc(-c3ccc(Cl)cc3)cc2=O)CC1 [Compound I-0136]
9,10 to 100 nM,N#CCCNC(=O)Cn1c(CCCC(F)(F)F)nc(-c2ccc(Cl)cc2)cc1=O [Compound I-0137]
10,< 10 nM,O=C(Cn1c(CCCC(F)(F)F)nc(-c2ccc(Cl)cc2)cc1=O)NCCCS(=O)(=O)O [Compound I-0138]
11,10 to 100 nM,O=C(Cn1c(CCCC(F)(F)F)nc(-c2ccc(Cl)cc2)cc1=O)N1CCOC(CO)C1 (stereo not shown) [Compound I-0139]
12,100 to 1000 nM,O=C(Cn1c(CCCC(F)(F)F)nc(-c2ccc(Cl)cc2)cc1=O)NCCOCCOCCO [Compound I-0140]
13,10 to 100 nM,Cc1noc(CNC(=O)Cn2c(CCCC(F)(F)F)nc(-c3ccc(Cl)cc3)cc2=O)n1 [Compound I-0141]
14,100 to 1000 nM,O=C(Cn1c(CCCC(F)(F)F)nc(-c2ccc(Cl)cc2)cc1=O)NCc1ccnc(O)c1 [Compound I-0142]
15,10 to 100 nM,O=C(Cn1c(CCCC(F)(F)F)nc(-c2ccc(Cl)cc2)cc1=O)NC1CCS(=O)(=O)C1 (stereo not shown) [Compound I-0143]
16,10 to 100 nM,CCC(CO)(CO)NC(=O)Cn1c(CCCC(F)(F)F)nc(-c2ccc(Cl)cc2)cc1=O [Compound I-0144]
17,10 to 100 nM,CCNS(=O)(=O)CCNC(=O)Cn1c(CCCC(F)(F)F)nc(-c2ccc(Cl)cc2)cc1=O [Compound I-0145]
18,100 to 1000 nM,O=C(Cn1c(CCCC(F)(F)F)nc(-c2ccc(Cl)cc2)cc1=O)NCCN(CCO)CCO [Compound I-0146]
19,10 to 100 nM,O=C(Cn1c(CCCC(F)(F)F)nc(-c2ccc(Cl)cc2)cc1=O)NCC1(CO)COC1 [Compound I-0147]
20,100 to 1000 nM,CC(C)(O)CN1CCN(C(=O)Cn2c(CCCC(F)(F)F)nc(-c3ccc(Cl)cc3)cc2=O)CC1 [Compound I-0148]
21,≥ 1000 nM,O=C(Cn1c(=O)cc(-c2ccc(Cl)cc2)[nH]c1=O)NC(Cc1ccccc1)C(=O)O (stereo not shown) [Compound I-0150]
22,100 to 1000 nM,CCCCCn1c(-c2ccc(Cl)cc2)cc(=O)n(CC(=O)NC(Cc2ccccc2)C(=O)O)c1=O (stereo not shown) [Compound I-0151]

row,IC50,Compound
1,10 to 100 nM,CCCCCOc1nc(-c2ccc(Cl)cc2)cc(=O)n1CC(=O)NC(Cc1ccccc1)C(=O)O (stereo not shown) [Compound I-0152]
2,10 to 100 nM,O=C(c1cccc(Cn2c(CCCC(F)(F)F)nc(-c3ccc(Cl)cc3)cc2=O)c1)N1CCSCC1 [Compound I-0153]
3,10 to 100 nM,O=C(NCCS(=O)(=O)O)c1cccc(Cn2c(CCCC(F)(F)F)nc(-c3ccc(Cl)cc3)cc2=O)c1 [Compound I-0154]
4,100 to 1000 nM,CN(CC#N)C(=O)c1cccc(Cn2c(CCCC(F)(F)F)nc(-c3ccc(Cl)cc3)cc2=O)c1 [Compound I-0155]
5,100 to 1000 nM,CC(=O)NCCNC(=O)c1cccc(Cn2c(CCCC(F)(F)F)nc(-c3ccc(Cl)cc3)cc2=O)c1 [Compound I-0156]
6,10 to 100 nM,CN(CCC#N)C(=O)c1cccc(Cn2c(CCCC(F)(F)F)nc(-c3ccc(Cl)cc3)cc2=O)c1 [Compound I-0157]
7,10 to 100 nM,O=C(c1cccc(Cn2c(CCCC(F)(F)F)nc(-c3ccc(Cl)cc3)cc2=O)c1)N1CCC(O)CC1 [Compound I-0158]
8,< 10 nM,O=C(c1cccc(Cn2c(CCCC(F)(F)F)nc(-c3ccc(Cl)cc3)cc2=O)c1)N1CCC(CO)CC1 [Compound I-0159]
9,10 to 100 nM,O=C(c1cccc(Cn2c(CCCC(F)(F)F)nc(-c3ccc(Cl)cc3)cc2=O)c1)N1CCOCC1 [Compound I-0160]
10,100 to 1000 nM,COCCCNC(=O)c1cccc(Cn2c(CCCC(F)(F)F)nc(-c3ccc(Cl)cc3)cc2=O)c1 [Compound I-0161]
11,100 to 1000 nM,O=C(NCCOCCO)c1cccc(Cn2c(CCCC(F)(F)F)nc(-c3ccc(Cl)cc3)cc2=O)c1 [Compound I-0162]
12,100 to 1000 nM,O=C(NCCCO)c1cccc(Cn2c(CCCC(F)(F)F)nc(-c3ccc(Cl)cc3)cc2=O)c1 [Compound I-0163]
13,100 to 1000 nM,N#CCNC(=O)c1cccc(Cn2c(CCCC(F)(F)F)nc(-c3ccc(Cl)cc3)cc2=O)c1 [Compound I-0164]
14,100 to 1000 nM,O=C(NC(CO)CO)c1cccc(Cn2c(CCCC(F)(F)F)nc(-c3ccc(Cl)cc3)cc2=O)c1 [Compound I-0165]
15,100 to 1000 nM,C[C@@H]1CN(C(=O)c2cccc(Cn3c(CCCC(F)(F)F)nc(-c4ccc(Cl)cc4)cc3=O)c2)C[C@H](C)O1 [Compound I-0166]
16,100 to 1000 nM,O=C(NCC(O)c1ccccc1)c1cccc(Cn2c(CCCC(F)(F)F)nc(-c3ccc(Cl)cc3)cc2=O)c1 (stereo not shown) [Compound I-0167]
17,100 to 1000 nM,NC(=O)CNC(=O)c1cccc(Cn2c(CCCC(F)(F)F)nc(-c3ccc(Cl)cc3)cc2=O)c1 [Compound I-0168]
18,100 to 1000 nM,O=C(NCc1cnccn1)c1cccc(Cn2c(CCCC(F)(F)F)nc(-c3ccc(Cl)cc3)cc2=O)c1 [Compound I-0169]
19,10 to 100 nM,O=C(NCc1cc(=O)[nH]o1)c1cccc(Cn2c(CCCC(F)(F)F)nc(-c3ccc(Cl)cc3)cc2=O)c1 [Compound I-0170]
20,100 to 1000 nM,O=C(NCCN1CCNC1=O)c1cccc(Cn2c(CCCC(F)(F)F)nc(-c3ccc(Cl)cc3)cc2=O)c1 [Compound I-0171]
21,100 to 1000 nM,O=C(NCCO)c1cccc(Cn2c(CCCC(F)(F)F)nc(-c3ccc(Cl)cc3)cc2=O)c1 [Compound I-0172]
22,100 to 1000 nM,O=C(NCC(O)CO)c1cccc(Cn2c(CCCC(F)(F)F)nc(-c3ccc(Cl)cc3)cc2=O)c1 (stereo not shown) [Compound I-0173]

row,IC50,Compound
1,100 to 1000 nM,O=C(N[C@H]1CC[C@H](O)CC1)c1cccc(Cn2c(CCCC(F)(F)F)nc(-c3ccc(Cl)cc3)cc2=O)c1 [Compound I-0174]
2,100 to 1000 nM,O=C(NCC1(CO)CC1)c1cccc(Cn2c(CCCC(F)(F)F)nc(-c3ccc(Cl)cc3)cc2=O)c1 [Compound I-0175]
3,100 to 1000 nM,O=C(NCc1ccc(O)nc1)c1cccc(Cn2c(CCCC(F)(F)F)nc(-c3ccc(Cl)cc3)cc2=O)c1 [Compound I-0176]
4,100 to 1000 nM,CS(=O)(=O)CCNC(=O)c1cccc(Cn2c(CCCC(F)(F)F)nc(-c3ccc(Cl)cc3)cc2=O)c1 [Compound I-0177]
5,100 to 1000 nM,O=C(NC(CO)c1ccccc1)c1cccc(Cn2c(CCCC(F)(F)F)nc(-c3ccc(Cl)cc3)cc2=O)c1 (stereo not shown) [Compound I-0178]
6,10 to 100 nM,O=C1CCN(C(=O)c2cccc(Cn3c(CCCC(F)(F)F)nc(-c4ccc(Cl)cc4)cc3=O)c2)CCN1 [Compound I-0179]
7,100 to 1000 nM,CNC(=O)c1cccc(Cn2c(CCCC(F)(F)F)nc(-c3ccc(Cl)cc3)cc2=O)c1 [Compound I-0180]
8,10 to 100 nM,CN(C)C(=O)c1cccc(Cn2c(CCCC(F)(F)F)nc(-c3ccc(Cl)cc3)cc2=O)c1 [Compound I-0181]
9,100 to 1000 nM,CNC(=O)CNC(=O)c1cccc(Cn2c(CCCC(F)(F)F)nc(-c3ccc(Cl)cc3)cc2=O)c1 [Compound I-0182]
10,10 to 100 nM,CN(C)C(=O)CNC(=O)c1cccc(Cn2c(CCCC(F)(F)F)nc(-c3ccc(Cl)cc3)cc2=O)c1 [Compound I-0183]
11,100 to 1000 nM,NC(=O)CCCNC(=O)c1cccc(Cn2c(CCCC(F)(F)F)nc(-c3ccc(Cl)cc3)cc2=O)c1 [Compound I-0184]
12,100 to 1000 nM,CC1(NC(=O)c2cccc(Cn3c(CCCC(F)(F)F)nc(-c4ccc(Cl)cc4)cc3=O)c2)COC1 [Compound I-0185]
13,100 to 1000 nM,NS(=O)(=O)CCNC(=O)c1cccc(Cn2c(CCCC(F)(F)F)nc(-c3ccc(Cl)cc3)cc2=O)c1 [Compound I-0186]
14,100 to 1000 nM,CC(C)(O)CNC(=O)c1cccc(Cn2c(CCCC(F)(F)F)nc(-c3ccc(Cl)cc3)cc2=O)c1 [Compound I-0187]
15,100 to 1000 nM,O=C(NC(CO)(CO)CO)c1cccc(Cn2c(CCCC(F)(F)F)nc(-c3ccc(Cl)cc3)cc2=O)c1 [Compound I-0188]
16,100 to 1000 nM,Cc1nc(CNC(=O)c2cccc(Cn3c(CCCC(F)(F)F)nc(-c4ccc(Cl)cc4)cc3=O)c2)no1 [Compound I-0189]
17,100 to 1000 nM,Cc1nonc1CNC(=O)c1cccc(Cn2c(CCCC(F)(F)F)nc(-c3ccc(Cl)cc3)cc2=O)c1 [Compound I-0190]
18,100 to 1000 nM,CN(CC(N)=O)C(=O)c1cccc(Cn2c(CCCC(F)(F)F)nc(-c3ccc(Cl)cc3)cc2=O)c1 [Compound I-0191]
19,10 to 100 nM,O=C(NCc1ccnc(O)c1)c1cccc(Cn2c(CCCC(F)(F)F)nc(-c3ccc(Cl)cc3)cc2=O)c1 [Compound I-0192]
20,100 to 1000 nM,O=C(NCc1cccnc1O)c1cccc(Cn2c(CCCC(F)(F)F)nc(-c3ccc(Cl)cc3)cc2=O)c1 [Compound I-0193]
